Reference: paper PMC7326275 (PLoS Pathogens, 2020)
Values joined by “and” are separate entries in the source; they are usually repeats but may differ in a detail not shown here. Identical values can stand only once. Like-named read-outs stand apart in the source and are kept apart here. Marks after values point to notes of the source that are not given here.

Experiments:
[1] = tested on: H1N1 virus (A/Mississippi/3/2001); format: in vivo
[2] = tested on: H1N1pdm09 virus (A/Perth/265/2009); format: in vivo
[3] = tested on: H3N2 virus (A/Fukui/20/2004); format: in vivo
[4] = tested on: B virus (B/Minnesota/23/2015); format: in vivo
H1N1pdm09 virus = format: in vivo
[5] = tested on: nine different influenza viruses; test: animal or person; format: in vivo; details: Mustela putorius, estimated from non-linear regression model, ferrets
[6] = tested on: influenza NA protein (nine different influenza viruses); test: Fluorometric NA inhibition assay, summary over viruses
[7] = B, OST dosed ferrets, maximum loss from baseline

With `CCOC(=O)C1=C[C@@H](OC(CC)CC)[C@H](NC(C)=O)[C@@H](N)C1` [OST, oseltamivir] the “Total Score (clinical signs)” value ([1]; H1N1, OST dosed ferrets) was 3, the Temperature clinical score ([1]; H1N1, OST dosed ferrets, maximum increase from baseline) was 1 (1.1–1.5) and the “Activity loss clinical score” value ([1]; H1N1, OST dosed ferrets, maximum loss from baseline) was 1 (21–40). For the same compound, the “Nasal inflammation Cell score” value ([1]; H1N1, OST dosed ferrets, nasal wash, maximum cell count) was 1 (1 to 2 x10^6), the “Nasal inflammation Protein score” value ([1]; H1N1, OST dosed ferrets, nasal wash, maximum protein concentration) was 0 (<500) and the “difference in %AUC for weight (OST vs placebo)” value ([1]; H1N1, ferrets) was 2.5%. The “Duration of Shedding” value ([1]; H1N1, ferrets, OST 5 mg/kg twice daily) was 0.0 ± 0.0 days, the “AUC (total area under the viral shedding curve, raw data)” value ([1]; H1N1, ferrets, OST 5 mg/kg twice daily, mean ± SD) was 0.0 ± 0.0 and the “difference in %AUC for cell count (OST vs placebo)” value ([1]; H1N1, ferrets, nasal wash) was 67%. For the same compound, the “difference in %AUC for protein concentration (OST vs placebo)” value ([1]; H1N1, ferrets, nasal wash) was 74%, the “% Ferrets Infected” value ([1]; in vivo) was 0 (0/4) % and the “Weight loss clinical score” value ([1]; in vivo) was 0. The “activity levels of OST dosed ferrets” value ([1]; in vivo) was “fluctuated around pre-exposure baseline levels”, the “ferrets infected (number infected/number exposed)” value ([1]; in vivo) was 0/4 and the “Total Score (clinical signs)” value ([2]; H1N1pdm09, OST dosed ferrets) was 6. The Temperature clinical score ([2]; H1N1pdm09, OST dosed ferrets, maximum increase from baseline) was 2 (1.5–2.0), the “Activity loss clinical score” value ([2]; H1N1pdm09, OST dosed ferrets, maximum loss from baseline) was 1 (21–40) and the “Nasal inflammation Cell score” value ([2]; H1N1pdm09, OST dosed ferrets, nasal wash, maximum cell count) was 1 (1 to 2 x10^6). For the same compound, the “Nasal inflammation Protein score” value ([2]; H1N1pdm09, OST dosed ferrets, nasal wash, maximum protein concentration) was 2 (1001–1500), the “difference in %AUC for activity levels (OST vs placebo)” value ([2]; H1N1pdm09, ferrets) was 53% and the “Duration of Shedding” value ([2]; H1N1pdm09, ferrets, OST 5 mg/kg twice daily) was 3.5 ± 0.7 days. For the same compound, the “AUC (total area under the viral shedding curve, raw data)” value ([2]; H1N1pdm09, ferrets, OST 5 mg/kg twice daily, mean ± SD) was 9.3 ± 12.7, the “difference in %AUC for protein concentration (OST vs placebo)” value ([2]; H1N1pdm09, ferrets, nasal wash) was 56% and the “% Ferrets Infected” value ([2]; in vivo) was 50% and 50 (2/4) %. The “Peak Viral Titre” value ([2]; in vivo) was 4.2 ± 0.9 Log10 TCID50/ml, the “Weight loss clinical score” value ([2]; in vivo) was 0 and the “difference in %AUC for weight change (OST vs placebo)” value ([2]; in vivo) was 4.9%. The “Total Score (clinical signs)” value ([3]; H3N2, OST dosed ferrets) was 1, the Temperature clinical score ([3]; H3N2, OST dosed ferrets, maximum increase from baseline) was 0 (<1) and the “Activity loss clinical score” value ([3]; H3N2, OST dosed ferrets, maximum loss from baseline) was 1 (21–40). The “Nasal inflammation Cell score” value ([3]; H3N2, OST dosed ferrets, nasal wash, maximum cell count) was 0 (<1X10^6), the “Nasal inflammation Protein score” value ([3]; H3N2, OST dosed ferrets, nasal wash, maximum protein concentration) was 0 (<500) and the “Duration of Shedding” value ([3]; H3N2, ferrets, OST 5 mg/kg twice daily) was 2.0 ± 0.8 days. For the same compound, the “AUC (total area under the viral shedding curve, raw data)” value ([3]; H3N2, ferrets, OST 5 mg/kg twice daily, mean ± SD) was 3.0 ± 3.7, the “% Ferrets Infected” value ([3]; in vivo) was 50 (4/8) % and the “Peak Viral Titre” value ([3]; in vivo) was 3.0 ± 0.8 Log10 TCID50/ml. For the same compound, the “Weight loss clinical score” value ([3]; in vivo) was 0, the “ferrets prevented from shedding infectious virus” value ([3]; in vivo) was 50% and the “reduction of %AUC for cell counts (OST vs placebo)” value ([3]; in vivo) was 69.2%. The “reduction of %AUC for protein concentration (OST vs placebo)” value ([3]; in vivo) was 52.4%, the “Total Score (clinical signs)” value ([4]; B, OST dosed ferrets) was 3 and the Temperature clinical score ([4]; B, OST dosed ferrets, maximum increase from baseline) was 0 (<1). The “Activity loss clinical score” value [4, 7] was 1 (21–40), the “Weight loss clinical score” value [4, 7] was 0 and the “Nasal inflammation Cell score” value ([4]; B, OST dosed ferrets, nasal wash, maximum cell count) was 1 (1 to 2 x10^6). For the same compound, the “Nasal inflammation Protein score” value ([4]; B, OST dosed ferrets, nasal wash, maximum protein concentration) was 1 (500–1000), the “% Ferrets Infected” value ([4]; B, ferrets, OST 5 mg/kg orally twice daily) was 100 (4/4) % and the “Duration of Shedding” value ([4]; B, ferrets, OST 5 mg/kg twice daily) was 5.5 ± 0.6 days. For the same compound, the “AUC (total area under the viral shedding curve, raw data)” value ([4]; B, ferrets, OST 5 mg/kg twice daily, mean ± SD) was 12.9 ± 1.9, the “Peak Viral Titre” value ([4]; in vivo) was 3.7 ± 0.4 Log10 TCID50/ml and the “body weight or temperature, OST- vs placebo-treated animals” value (H1N1pdm09 virus; H1N1pdm09, macaques, OST 3 mg/kg orally) was “no significant differences”. For the same compound, the “viral titre lower in tracheal lavages of OST dosed macaques compared to placebo” value (H1N1pdm09 virus; cynomolgus monkey, in vivo) was 1.9 logs, the “viral titres in nasal wash and tracheal lavages, OST vs placebo” value (H1N1pdm09 virus; cynomolgus monkey, in vivo) was “not significantly different” and the IC50 ([5]; read-out: IC50 corresponding to a 50% reduction in OST efficacy against viral shedding) was 14.6 nM. It also gave an IC50 ([5]; read-out: IC50 corresponding to a 90% loss in oseltamivir efficacy against viral shedding) of 68.2 nM, an IC50 ([6]; read-out: OST IC50 values, range over nine different influenza viruses, nine viruses of the ferret study) of 0.2 to 414 nM and an IC50 ([6]; read-out: normal IC50 values of wild-type influenza A viruses, wild-type influenza A viruses) of roughly 1 nM.
